Patent US20130164347A1, “MULTILAYER POLYMERIC DRUG DELIVERY SYSTEM” (priority 2011, published 2013)

Columns and labels:
[1] = In-vitro release of 5-FU from partially encapsulated multilayer polymeric films
Protocol: In-Vitro release of 5-Fluoro-Uracil (5-FU) has been quantified over time from Partially Encapsulated Multilayer Polymeric films.
The resulting test articles, 2.5 mm diameter×1.25 mm high, were immersed in a PBS solution supplemented by 2 percent FBS onto a shaker in an incubator at 37 degrees Celsius. Release of 5-FU was quantified by HPLC-UV as follows: after filtration, aliquots were injected onto an Agilent 1100 column (50×4.6 mm×3 um with guard column). The 5-FU detection was performed via a UV Detector (Wavelength: 265 nm). The flow rate was 1.0 mL/min. The mobile phase was a mixture of TFA (0.1 percent) and Acetonitrile.

[2] = In-vitro release of bimatoprost from fully encapsulated multilayer polymeric films; type: physicochemical; details: for release profile of bimatoprost: PBS + 2 percent FBS, 37 degrees Celsius
Protocol: In Vitro release studies were performed using the fully encapsulated polymeric films (wherein the carrier discs are fully encapsulated within the surrounding barrier layers) containing bimatoprost as prepared in Example 6.

[3] = Thermal decomposition of bioactive agent; type: physicochemical
[4] = partially encapsulated film, 30 percent w/w
[5] = fully encapsulated film laminated at 140 degrees Fahrenheit (60 degrees Celsius)

Row | Structure (SMILES) | release profile of 5-FU ([1]; fully encapsulated films with no adhesive layers) | burst duration [1, 4] [days] | rest period after burst [1, 4] | start of delayed sustained release [1, 4] [days] | release profile of 5-FU ([1]; partially encapsulated film, 30 percent w/w, 2.5 mm disk, PBS + 2 percent FBS, 37 degrees Celsius) | release profile of bimatoprost ([2]; fully encapsulated film laminated at 131 degrees Fahrenheit (55 degrees Celsius)) | period of no or undetectable release [2, 5] [days] | release profile of bimatoprost [2, 5] | drug released in the first 24 hours ([2]; monolayer 2 mm diameter carrier film compression molded at 152 degrees Fahrenheit (67 degrees Celsius)) [%] | decomposition temperature [3] [degrees Celsius]
1 | O=c1[nH]cc(F)c(=O)[nH]1 [5-FU, 5-Fluoro-Uracil] | delayed sustained release | 2 | approximately 9 days | ~11 | bimodal release profile |  |  |  |  | 
2 | CCNC(=O)CCC/C=C\C[C@@H]1[C@@H](/C=C/[C@@H](O)CCc2ccccc2)[C@H](O)C[C@@H]1O [bimatoprost] |  |  |  |  |  | zero-order release | 10 | delayed sustained release | 99 | 70
